Key:
segmental femoral defect = test: Segmental femoral defect rat fracture model (Example 1); type: in vivo; settings: for bone healing and fracture repair, treated versus control animals: radiography, sacrifice at 6 weeks; for bone healing and fracture repair, treated versus control animals / bone growth in the defects (weekly radiographic density of segmented bone defect) relative to control: subcutaneous daily; for bone growth in the defects (weekly radiographic density of segmented bone defect) relative to control: FIG. 1, after four weeks of treatment; for radiographic density ratio of the segmented bone to the contralateral femur: FIG. 2, after six weeks of treatment, relative to control treated rats
Description: T. A. Einhorn et al. “The Healing of Segmented Bone Defects Induced by Demineralized Bone Matrix. A Radiographic and Biomechanical Study,” J. Bone Joint, 66:274-279 (1984.
Adult male Sprague-Dawley rats weighing about 300 grams were maintained on Laboratory Rodent Diet 5001 (PMI Feeds, St. Louis, Mo.) and water ad libitum. All rats received only water for 12 hours prior to surgery. The animals were anesthetized prior to surgery by IP injection with ketamine (80 mg/kg) and xylazine (5 mg/kg). A single dose of procaine penicillin was given intramuscularly for prophylaxis against infection.
A lateral approach to the femur was used and a pre-drilled high density polyethylene plate was fixed along the anterior cortex of the femur. During this placement the periosteum of the femur was extensively stripped. A […] non-critical sized segmental defect was created in the mid portion of the femur shaft. The wound was closed with nylon and chromic sutures.
Postoperatively, the rats were placed in cages with 48 hour post-operative access to food pellets. The animals were monitored at least once daily and animals displaying any signs of illness were examined and given appropriate therapy if necessary.
Rats were divided into groups as shown in Table 1 and either a control vehicle (saline) or a PTHrP analog as described herein was administered subcutaneously daily starting on post-operative day 1. Radiographic analyses were performed weekly. Animals were sacrificed at 6 weeks and compared by radiography.
Sedated rats were placed in the prone position with hindlimbs externally rotated. Serial radiographs of each femur (involved femur and contralateral femur) were taken weekly starting with postoperative week 1. An aluminium phantom device with known density values was included in each radiograph for calibration. Each radiograph was placed on a translumination board and a picture taken using a DCS 420 digital Kodak camera. These images were then transferred to a Gateway 2000 IBM compatible computer and digitized using image analysis software (Sigma Scan©). An outline of the defect was traced and the average density of the area of the osteotomy measured in treated animals relative to control animals. […] The average density of the osteotomy was also compared to the average density of the contralateral femur for each weekly reading. […] After sacrifice (6 weeks), the femurs (experimental and contralateral) were dissected free of soft tissue. Fine grain radiographs were taken of the femurs in the lateral plane. The osteotomy was considered united when there was osseous continuity of the femur across more than 25% of the cross sectional diameter of the defect.

[1] = test system: intramembraneous bone defect; test: Intramembraneous bone healing, drill hole defects in distal femur and proximal tibia (Example 3); type: in vivo, rabbit; settings: for intramembraneous bone formation relative to vehicle treated animals: 2 or 10 μg/kg/day subcutaneous daily; for femoral defects healed / tibial defects healed: day 21
Text: Rabbits were generally anesthesized and subjected to surgery to create four surface defects, one in each distal femur and one in each proximal tibia. A posterior lateral surgical incision measuring approximately 3 cm. was made to expose the distal lateral femoral condyle. Bone proximal to the knee joint was subperiosteally exposed and a 5 mm drill hole was made, keeping the drill bit cool by constant irrigation. The wound was irrigated with normal saline. Deep tissue was closed with a running 3-0 chronic suture followed by closure of the subticular layer with a running 3-0 nylon suture and three to four interrupted stainless steel sutures. A second 3 cm. incision was made over the medial proximal tibia and a 5 mm drill hole was made in the proximal medial tibia. The wound was closed as described previously. The entire procedure was repeated on the contralateral limb.
Stock solutions of PTHrP analog C, (MAP1-10)^22-31His^26hPTHrP(1-34)NH2, and PTHRP analog D, (MAP1-10)^22-31hPTHrP(1-34)NH2, at 800 μg/ml were prepared by sterile filtration through an 0.22 micron filter and diluted in vehicle to either 20 μg/ml or 100 μg/ml just before administration. Vehicle was 30 mg/ml mannitol, 30/mg/ml sucrose, 0.12 mg/ml Tween™ 80, 0.17 mg/ml acetic acid and 2.33 mg/ml sodium acetate trihydrate. PTHrP analogs at either 2 μg/kg/day or 10 μg/kg/day was administered daily by subcutaneous injection to the surgically treated animals.
Animals were X-rayed weekly for the duration of the study. Densitometric measurements were made using a transilluminating scanner and MetaMorph™ (Universal Imaging, West Chester, Pa.) software. Radiographs of the lower extremities were performed in internal and external rotation on post-operative day 10 and 21. The animals were sacrificed on post-operative day 30. At the end of the study, animals were euthanized by pentobarbital overdose, tissues were harvested from the left and right femurs and tibias were analyzed by x-ray and histological analysis.

ulnar osteotomy = test: Ulnar osteotomy model, corticosteroid induced delayed healing (Example 4); type: in vivo, rabbit
Description: Adult male New Zealand White rabbits were used in all experiments. In Part I, ten rabbits were divided into two equal groups and in Part II, twenty rabbits were divided equally. Non critical sized (1 mm) defects were created bilaterally in each rabbit. From two months prior to surgery through six weeks post-operative, all rabbits received daily subcutaneous injections of either prednisone (0.15 mg/kg) in sterile water (experimental group) or sterile saline (control group). Beginning on the first post-operative day, the experimental group were administered daily sub cutaneious infections of PTHrP analog D (0.01 mg/kg), while the control group received injections of normal saline. In Part I, animals were sacrificed at six weeks after creation of the osteotomy. In Part II, animals were sacrificed once radiographic union was reached bilaterally, or in cases of non-union at ten weeks post-operative. In both sets of experiments, radiological intensity and healing area were analyzed every other week starting two weeks (Part I) or four weeks (Part II) post-operatively. Serial radiographs of the forelimbs were taken and digitized and the bone area was quantified using image analysis software (Sigma Scan Pro). Photodensitometry was used to quantitate the mineral content of the newly formed bone at sites of osteotomy and callus formation. After sacrifice, high resolution faxitron radiographs were taken of both limbs in the anteroposterior and lateral planes, allowing for analysis of fracture callus dimension and size.

fracture healing = settings: intermittent treatment; ovariectomized rats; Kim et al.; cited from earlier work
[2] = high dose group (10 μg/kg/day s.c.)
[3] = low dose group (2 μg/kg/day s.c.), no complete healing in controls

## (MAP1-10)^22-31c[Lys^13, Asp^17]hPTHrP(1-34)NH2
Segmental femoral defect
  bone healing and fracture repair, treated versus control animals: accelerated bone healing and fracture repair

## (MAP1-10)^22-31Ala^19hPTHrP(1-34)NH2 [PTHrP analog B]
Segmental femoral defect
  bone growth in the defects (weekly radiographic density of segmented bone defect) relative to control: greater than in the control animals
  radiographic density ratio of the segmented bone to the contralateral femur: increased bone density

## (MAP1-10)^22-31His^26hPTHrP(1-34)NH2 [PTHrP analog C]
[1]
  intramembraneous bone formation relative to vehicle treated animals: accelerated intramembraneous bone formation
Segmental femoral defect
  bone growth in the defects (weekly radiographic density of segmented bone defect) relative to control: greater than in the control animals
  radiographic density ratio of the segmented bone to the contralateral femur: increased bone density
Segmental femoral defect; FIG. 3, after treatment for six weeks, control defect remains non-united
  union of the defect in high resolution radiographs: has healed

## (MAP1-10)^22-31hSer^34PTHrP(1-34)THIQ NH2
Segmental femoral defect
  bone healing and fracture repair, treated versus control animals: accelerated bone healing and fracture repair

## (MAP1-10)^22-31hPTHrP(1-34)NH2 [PTHrP analog D]
Ulnar osteotomy; Part I, biomechanical
  torsional strength (stiffness and maximum torque) versus vehicle-treated control limbs: significantly greater
Ulnar osteotomy; Part I, six weeks
  intensities at the osteotomy sites, anteroposterior and lateral faxitrons, treated versus control limbs: significantly greater
  intensity of proximal and distal ulnar diaphyses, treated versus control limbs: significantly greater
  intensity of the external calluses (lateral), treated versus control limbs: also greater
Ulnar osteotomy; Part I, six weeks, 0.01 mg/kg daily s.c., prednisone, two out of ten in vehicle controls, FIG. 5
  limbs that achieved union: Nine out ten
Ulnar osteotomy; Part II, after sacrifice
  area of the osteotomy versus vehicle control limbs: significantly smaller
Ulnar osteotomy; Part II, after sacrifice, p<0.05 at osteotomy site
  radiographic intensity at the osteotomy site, ulnar diaphysis and callus area versus vehicle control limbs: greater radiographic intensity
Ulnar osteotomy; Part II, four weeks, p<0.01 at osteotomy site
  radiographic intensity at the osteotomy site, external calluses and ulnar diaphyses versus control limbs: greater radiographic intensity
Ulnar osteotomy; Part II, four weeks, p<0.05
  combined callus areas versus control limbs: greater
Ulnar osteotomy; Part II, six weeks
  callus intensity or area versus control limbs: no differences
  intensity at the osteotomy site versus control limbs, in vivo radiography: trend of increased intensity
Ulnar osteotomy; Part II, six weeks, radiographic union
  union rate: complete union rate
[1]
  intramembraneous bone formation relative to vehicle treated animals: accelerated intramembraneous bone formation
[1]; at sacrifice (day 30), high dose, radiographic analysis, p<0.01 vs control (less than 10%)
  tibial defects filled with mineralized tissue: over 85%
[1]; at sacrifice, p<0.01
  percent fill of femoral defects versus control treated femoral defects: significant greater percent fill
[1]; [2]
  femoral defects healed: 50%
  tibial defects healed: 75%
[1]; [3]
  femoral defects healed: 40%
  tibial defects healed: 40%

B1: parathyroid hormone (protein, UniProt P01270 32-115, looked up)
Parathyroid hormone: SVSEIQLMHNLGKHLNSMERVEWLRKKLQDVHNFVALGAPLAPRDAGSQRPRKKEDNVLVESHEKSLGEADKADVNVLTKAKSQ
modifications: Parathyroid hormone recombinant
notes: Recombinant human (1-84) parathyroid hormone, per the cited Kim et al. titles
Fracture healing
  fracture healing: improves fracture healing

— patent US6583114B2, “Fracture healing using pthrp analogs” (Roche Palo Alto LLC, priority 1997, dated 2003)
